US6737383B1, “Herbicidal oxadiazolidines” (priority 1999, dated 2004)

Legend:
bedstraw = test: Test B pre/postemergence bedstraw; format: in vivo, Galium aparine; settings: Preemergence
Outline: (§1)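 Test chemicals in a non-phytotoxic solvent mixture with surfactant were sprayed preemergence onto planted seeds and postemergence onto plants 2 to 18 cm tall (1- to 4-leaf stage). After twelve to sixteen days in a greenhouse, injury was visually rated against untreated controls from 0 (no effect) to 10 (complete control).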

blackgrass = test: Test B pre/postemergence blackgrass; format: in vivo, Alopecurus myosuroides
Outline: as §1

surinam grass = test: Test B pre/postemergence surinam grass; format: in vivo, Brachiaria decumbens
Outline: as §1

cocklebur = test: Test B pre/postemergence cocklebur; format: in vivo, Xanthium strumarium
Outline: as §1

corn = test: Test B pre/postemergence corn; format: in vivo, Zea mays
Outline: as §1

crabgrass = test: Test B pre/postemergence crabgrass; format: in vivo, Digitaria sanguinalis
Outline: as §1

giant foxtail = test: Test B pre/postemergence giant foxtail; format: in vivo, Setaria faberii
Outline: as §1

morningglory = test: Test B pre/postemergence morningglory; format: in vivo, Ipomoea hederacea
Outline: as §1

pigweed = test: Test B pre/postemergence pigweed; format: in vivo, Amaranthus retroflexus
Outline: as §1

rape = test: Test B pre/postemergence rape; format: in vivo, Brassica napus
Outline: as §1

soybean = test: Test B pre/postemergence soybean; format: in vivo, Glycine max
Outline: as §1

sugar beet = test: Test B pre/postemergence sugar beet; format: in vivo, Beta vulgaris
Outline: as §1

velvetleaf = test: Test B pre/postemergence velvetleaf; format: in vivo, Abutilon theophrasti
Outline: as §1

wheat = test: Test B pre/postemergence wheat; format: in vivo, Triticum aestivum
Outline: as §1

wild oat = test: Test B pre/postemergence wild oat; format: in vivo, Avena fatua
Outline: as §1

purple nutsedge = test: Test B pre/postemergence purple nutsedge; format: in vivo, Cyperus rotundus
Outline: as §1

[1] = Postemergence, Rate 62 g/ha, scale of 0 to 10, 0 is no effect, 10 is complete control
[2] = Postemergence, Rate 125 g/ha, scale 0 to 10, 0 is no effect, 10 is complete control
[3] = Postemergence, Rate 500 g/ha, scale of 0 to 10 where 0 is no effect and 10 is complete control
[4] = Preemergence, Rate 62 g/ha, scale 0 to 10 (0 no effect, 10 complete control)
[5] = Preemergence, Rate 125 g/ha, scale 0 to 10, 0 is no effect, 10 is complete control
[6] = Preemergence, Rate 500 g/ha, scale of 0 to 10 where 0 is no effect and 10 is complete control
[7] = Rate 250 g/ha, Postemergence, scale of 0 to 10 where 0 is no effect and 10 is complete control

For CC(C)N(C(=O)n1oc(=O)n(CCC(F)=C(F)F)c1=O)c1ccccc1 [Compound 566], the “Bedstraw plant response rating” value (bedstraw; Rate 62 g/ha, scale 0 to 10 (0 no effect, 10 complete control)) was 0, the “Bedstraw plant response rating” value (bedstraw; Rate 125 g/ha, scale 0 to 10, 0 is no effect, 10 is complete control) was 0 and the “Bedstraw plant response rating (0 to 10 scale)” value (bedstraw; Rate 250 g/ha) was 0. The “Bedstraw plant response rating” value (bedstraw; Rate 500 g/ha, scale of 0 to 10 where 0 is no effect and 10 is complete control) was 0, the “Blackgrass plant response rating” value (blackgrass; [1]) was 0 and the “Blackgrass plant response rating” value (blackgrass; [2]) was 2. The “Plant response rating, Blackgrass” value (blackgrass; [3]) was 6, the “Blackgrass plant response rating” value (blackgrass; [4]) was 3 and the “Blackgrass plant response rating” value (blackgrass; [5]) was 9. The “Blackgrass plant response rating (0 to 10 scale)” value (blackgrass; Preemergence, Rate 250 g/ha) was 10, the “Blackgrass plant response rating” value (blackgrass; [6]) was 10 and the “Plant response rating, Blackgrass” value (blackgrass; [7]) was 3. The “B. signalgrass plant response rating” value (surinam grass; [1]) was 2, the “B. signalgrass plant response rating” value (surinam grass; [2]) was 8 and the “Plant response rating, B. signalgrass” value (surinam grass; [3]) was 9. The “B. signalgrass plant response rating” value (surinam grass; [4]) was 9, the “B. signalgrass plant response rating” value (surinam grass; [5]) was 9 and the “B. signalgrass plant response rating (0 to 10 scale, 0 is no effect, 10 is complete control)” value (surinam grass; Preemergence, Rate 250 g/ha) was 10. For the same compound, the “B. signalgrass plant response rating” value (surinam grass; [6]) was 9, the “Plant response rating, B. signalgrass” value (surinam grass; [7]) was 8 and the “Cocklebur plant response rating” value (cocklebur; [1]) was 2. The “Cocklebur plant response rating” value (cocklebur; [2]) was 2, the “Plant response rating, Cocklebur” value (cocklebur; [3]) was 3 and the “Cocklebur plant response rating” value (cocklebur; [4]) was 0. For the same compound, the “Cocklebur plant response rating” value (cocklebur; [5]) was 0, the “Cocklebur plant response rating (0 to 10 scale)” value (cocklebur; Preemergence, Rate 250 g/ha) was 0 and the “Cocklebur plant response rating” value (cocklebur; [6]) was 0. The “Plant response rating, Cocklebur” value (cocklebur; [7]) was 2, the “Corn plant response rating” value (corn; [1]) was 0 and the “Corn plant response rating” value (corn; [2]) was 0. The “Plant response rating, Corn” value (corn; [3]) was 2, the “Corn plant response rating” value (corn; [4]) was 0 and the “Corn plant response rating” value (corn; [5]) was 2. For the same compound, the “Corn plant response rating (0 to 10 scale)” value (corn; Preemergence, Rate 250 g/ha) was 2, the “Corn plant response rating” value (corn; [6]) was 9 and the “Plant response rating, Corn” value (corn; [7]) was 2. For the same compound, the “Crabgrass plant response rating” value (crabgrass; [1]) was 2, the “Crabgrass plant response rating” value (crabgrass; [2]) was 8 and the “Plant response rating, Crabgrass” value (crabgrass; [3]) was 9. For the same compound, the “Crabgrass plant response rating” value (crabgrass; [4]) was 9, the “Crabgrass plant response rating” value (crabgrass; [5]) was 9 and the “Crabgrass plant response rating (0 to 10 scale)” value (crabgrass; Preemergence, Rate 250 g/ha) was 9. The “Crabgrass plant response rating” value (crabgrass; [6]) was 10, the “Plant response rating, Crabgrass” value (crabgrass; [7]) was 10 and the “Giant foxtail plant response rating” value (giant foxtail; [1]) was 0. For the same compound, the “Giant foxtail plant response rating” value (giant foxtail; [2]) was 8, the “Plant response rating, Giant foxtail” value (giant foxtail; [3]) was 9 and the “Giant foxtail plant response rating” value (giant foxtail; [4]) was 9. The “Giant foxtail plant response rating” value (giant foxtail; [5]) was 10, the “Giant foxtail plant response rating (0 to 10 scale)” value (giant foxtail; Preemergence, Rate 250 g/ha) was 10 and the “Giant foxtail plant response rating” value (giant foxtail; [6]) was 10. The “Plant response rating, Giant foxtail” value (giant foxtail; [7]) was 8, the “Morningglory plant response rating” value (morningglory; [1]) was 5 and the “Morningglory plant response rating” value (morningglory; [2]) was 5. The “Plant response rating, Morningglory” value (morningglory; [3]) was 10, the “Morningglory plant response rating” value (morningglory; [4]) was 0 and the “Morningglory plant response rating” value (morningglory; [5]) was 0. For the same compound, the “Morningglory plant response rating (0 to 10 scale)” value (morningglory; Preemergence, Rate 250 g/ha) was 0, the “Morningglory plant response rating” value (morningglory; [6]) was 0 and the “Plant response rating, Morningglory” value (morningglory; [7]) was 6. For the same compound, the “Redroot pigweed plant response rating” value (pigweed; [1]) was 3, the “Plant response rating, Redroot pigweed” value (pigweed; [3]) was 5 and the “Redroot pigweed plant response rating” value (pigweed; [4]) was 0. The “Redroot pigweed plant response rating” value (pigweed; [5]) was 9, the “Redroot pigweed plant response rating (0 to 10 scale)” value (pigweed; Preemergence, Rate 250 g/ha) was 9 and the “Redroot pigweed plant response rating” value (pigweed; [6]) was 10. The “Rape plant response rating” value (rape; [1]) was 0, the “Rape plant response rating” value (rape; [2]) was 0 and the “Plant response rating, Rape” value (rape; [3]) was 9. The “Rape plant response rating” value (rape; [4]) was 0, the “Rape plant response rating” value (rape; [5]) was 0 and the “Rape plant response rating (0 to 10 scale)” value (rape; Preemergence, Rate 250 g/ha) was 7. The “Rape plant response rating” value (rape; [6]) was 10, the “Plant response rating, Rape” value (rape; [7]) was 9 and the “Soybean plant response rating” value (soybean; [1]) was 4. For the same compound, the “Plant response rating, Soybean” value (soybean; [3]) was 6, the “Soybean plant response rating” value (soybean; [4]) was 0 and the “Soybean plant response rating” value (soybean; [5]) was 0. The “Soybean plant response rating (0 to 10 scale)” value (soybean; Preemergence, Rate 250 g/ha) was 0, the “Soybean plant response rating” value (soybean; [6]) was 0 and the “Plant response rating, Soybean” value (soybean; [7]) was 6. For the same compound, the “Sugarbeets plant response rating” value (sugar beet; [1]) was 0, the “Plant response rating, Sugarbeets” value (sugar beet; [3]) was 5 and the “Sugarbeets plant response rating” value (sugar beet; [4]) was 0. For the same compound, the “Sugarbeets plant response rating” value (sugar beet; [5]) was 4, the “Sugarbeets plant response rating (0 to 10 scale)” value (sugar beet; Preemergence, Rate 250 g/ha) was 6 and the “Sugarbeets plant response rating” value (sugar beet; [6]) was 6. For the same compound, the “Velvetleaf plant response rating” value (velvetleaf; [1]) was 3, the “Plant response rating, Velvetleaf” value (velvetleaf; [3]) was 5 and the “Velvetleaf plant response rating” value (velvetleaf; [4]) was 0. The “Velvetleaf plant response rating” value (velvetleaf; [5]) was 0, the “Velvetleaf plant response rating (0 to 10 scale)” value (velvetleaf; Preemergence, Rate 250 g/ha) was 0 and the “Velvetleaf plant response rating” value (velvetleaf; [6]) was 2. For the same compound, the “Plant response rating, Velvetleaf” value (velvetleaf; [7]) was 5, the “Wheat plant response rating” value (wheat; [1]) was 0 and the “Plant response rating, Wheat” value (wheat; [3]) was 4. The “Wheat plant response rating” value (wheat; [4]) was 0, the “Wheat plant response rating” value (wheat; [5]) was 6 and the “Wheat plant response rating (0 to 10 scale)” value (wheat; Preemergence, Rate 250 g/ha) was 6. The “Wheat plant response rating” value (wheat; [6]) was 7, the “Plant response rating, Wheat” value (wheat; [7]) was 0 and the “Wild oats plant response rating” value (wild oat; [1]) was 0. The “Plant response rating, Wild oats” value (wild oat; [3]) was 4, the “Wild oats plant response rating” value (wild oat; [4]) was 3 and the “Wild oats plant response rating” value (wild oat; [5]) was 9. For the same compound, the “Wild oats plant response rating (0 to 10 scale)” value (wild oat; Preemergence, Rate 250 g/ha) was 8, the “Wild oats plant response rating” value (wild oat; [6]) was 10 and the “Plant response rating, Wild oats” value (wild oat; [7]) was 0. For the same compound, the “Nutsedge plant response rating” value (purple nutsedge; [1]) was 0, the “Nutsedge plant response rating” value (purple nutsedge; [2]) was 0 and the “Plant response rating, Nutsedge” value (purple nutsedge; [3]) was 0. For the same compound, the “Nutsedge plant response rating” value (purple nutsedge; [4]) was 0, the “Nutsedge plant response rating” value (purple nutsedge; [5]) was 0 and the “Nutsedge plant response rating (0 to 10 scale)” value (purple nutsedge; Preemergence, Rate 250 g/ha) was 0. The “Nutsedge plant response rating” value (purple nutsedge; [6]) was 0.
